Data published in patent publication US20020026051A1, “Dithiepino [6,5-b]pyridines, and related compositions and methods” (priority 1999, published 2002).

Target: T1, calcium channel (Oryctolagus cuniculus, UniProt P15381)
T1 construct: from tissue; host or cells: rabbit heart membrane preparation
Assay: Assay for Inhibition of Nitrendipine Binding (3H-nitrendipine, heart membranes)
Conditions: 3H-nitrendipine displacement, rabbit heart membranes
Protocol: Female, New Zealand white rabbits (1-2 kg) are sacrificed by cervical dislocation, and the heart is immediately removed, cleaned and chopped into small pieces. The tissue is homogenized in 5× times volume of 0.05M Hepes buffer, pH 7.4. The homogenate is centrifuged at 4000 g for 10 minutes, and the supernatant is re-centrifuged at 42,000×g for 90 minutes. The resulting membrane pellet is resuspended (0.7 ml/g weight) in 0.05M Hepes, pH 7.4 and stored at […] until used. Each tube of the binding assay contains ^3H-nitrendipine (0.05-0.50 nM), buffer, membranes (0.10 ml), and test compound in a total volume of 1.0 ml. After 90 minutes at 4° C., the bound nitrendipine is separated from the unbound by filtration on Whatman GF/C filters. After rinsing, the filters are dried and counted in a liquid scintillation counter.
Non-specific binding of ^3H-nitrendipine (that amount bound in the presence of excess unlabelled nitrendipine) is subtracted from the total bound to obtain specifically bound radiolabeled nitrendipine. The amount of specifically bound nitrendipine in the presence of a test compound is compared to that amount bound in the absence of a compound. A percent displacement (or inhibition) can then be calculated.

T1 sequence (P15381 whole entry, other chains not shown): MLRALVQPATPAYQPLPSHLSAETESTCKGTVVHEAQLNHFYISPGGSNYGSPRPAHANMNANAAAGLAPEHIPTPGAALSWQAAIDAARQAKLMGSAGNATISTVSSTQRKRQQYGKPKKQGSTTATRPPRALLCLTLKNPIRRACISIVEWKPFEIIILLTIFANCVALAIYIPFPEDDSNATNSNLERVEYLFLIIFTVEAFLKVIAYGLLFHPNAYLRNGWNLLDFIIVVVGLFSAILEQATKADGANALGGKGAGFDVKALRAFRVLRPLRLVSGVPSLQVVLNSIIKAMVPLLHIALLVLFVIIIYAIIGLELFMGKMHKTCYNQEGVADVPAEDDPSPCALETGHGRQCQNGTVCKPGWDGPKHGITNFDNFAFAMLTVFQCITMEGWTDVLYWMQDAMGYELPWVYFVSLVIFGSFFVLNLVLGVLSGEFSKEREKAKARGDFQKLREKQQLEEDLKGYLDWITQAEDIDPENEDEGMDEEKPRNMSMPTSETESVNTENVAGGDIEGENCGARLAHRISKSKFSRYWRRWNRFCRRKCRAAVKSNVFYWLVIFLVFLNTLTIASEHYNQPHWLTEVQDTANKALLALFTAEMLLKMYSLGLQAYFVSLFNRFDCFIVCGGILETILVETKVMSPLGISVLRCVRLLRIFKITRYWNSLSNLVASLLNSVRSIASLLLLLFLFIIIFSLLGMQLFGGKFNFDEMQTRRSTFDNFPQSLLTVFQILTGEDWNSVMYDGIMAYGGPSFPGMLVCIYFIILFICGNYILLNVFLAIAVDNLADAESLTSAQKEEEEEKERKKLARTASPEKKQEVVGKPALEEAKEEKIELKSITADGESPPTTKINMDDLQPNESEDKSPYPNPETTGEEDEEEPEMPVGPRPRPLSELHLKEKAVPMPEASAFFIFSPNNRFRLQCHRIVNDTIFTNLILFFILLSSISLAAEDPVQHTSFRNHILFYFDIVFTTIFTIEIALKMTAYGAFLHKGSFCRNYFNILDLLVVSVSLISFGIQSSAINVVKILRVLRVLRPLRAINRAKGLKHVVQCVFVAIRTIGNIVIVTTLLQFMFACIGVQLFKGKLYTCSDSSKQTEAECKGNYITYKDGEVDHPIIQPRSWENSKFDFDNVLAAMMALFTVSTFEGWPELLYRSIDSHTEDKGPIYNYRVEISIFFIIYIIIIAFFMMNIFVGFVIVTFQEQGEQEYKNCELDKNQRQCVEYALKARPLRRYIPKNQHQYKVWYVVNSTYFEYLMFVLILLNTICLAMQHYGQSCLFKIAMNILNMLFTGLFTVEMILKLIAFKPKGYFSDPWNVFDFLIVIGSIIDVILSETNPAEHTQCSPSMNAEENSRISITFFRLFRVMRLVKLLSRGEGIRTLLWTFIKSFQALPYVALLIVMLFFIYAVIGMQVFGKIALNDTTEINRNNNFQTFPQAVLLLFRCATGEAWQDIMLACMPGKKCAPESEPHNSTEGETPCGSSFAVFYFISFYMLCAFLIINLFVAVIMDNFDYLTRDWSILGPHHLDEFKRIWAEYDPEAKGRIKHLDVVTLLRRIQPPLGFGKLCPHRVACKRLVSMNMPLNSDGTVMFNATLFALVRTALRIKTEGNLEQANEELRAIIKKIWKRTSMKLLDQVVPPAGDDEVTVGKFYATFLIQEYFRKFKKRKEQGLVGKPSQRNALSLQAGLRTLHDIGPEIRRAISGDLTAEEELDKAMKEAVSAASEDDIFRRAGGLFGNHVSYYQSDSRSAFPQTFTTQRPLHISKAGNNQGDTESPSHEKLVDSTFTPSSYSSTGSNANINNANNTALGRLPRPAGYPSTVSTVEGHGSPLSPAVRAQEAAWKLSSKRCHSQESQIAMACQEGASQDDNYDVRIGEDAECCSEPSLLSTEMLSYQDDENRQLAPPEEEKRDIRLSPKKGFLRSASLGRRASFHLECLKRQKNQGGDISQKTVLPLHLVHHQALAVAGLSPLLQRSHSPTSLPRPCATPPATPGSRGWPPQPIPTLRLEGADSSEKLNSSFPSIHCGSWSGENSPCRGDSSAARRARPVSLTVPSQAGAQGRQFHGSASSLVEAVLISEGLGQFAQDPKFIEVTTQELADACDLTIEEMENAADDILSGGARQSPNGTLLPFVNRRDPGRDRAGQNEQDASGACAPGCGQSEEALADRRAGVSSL
T1 sequence (P13806 27-960 partner limits assumed, other chains not shown): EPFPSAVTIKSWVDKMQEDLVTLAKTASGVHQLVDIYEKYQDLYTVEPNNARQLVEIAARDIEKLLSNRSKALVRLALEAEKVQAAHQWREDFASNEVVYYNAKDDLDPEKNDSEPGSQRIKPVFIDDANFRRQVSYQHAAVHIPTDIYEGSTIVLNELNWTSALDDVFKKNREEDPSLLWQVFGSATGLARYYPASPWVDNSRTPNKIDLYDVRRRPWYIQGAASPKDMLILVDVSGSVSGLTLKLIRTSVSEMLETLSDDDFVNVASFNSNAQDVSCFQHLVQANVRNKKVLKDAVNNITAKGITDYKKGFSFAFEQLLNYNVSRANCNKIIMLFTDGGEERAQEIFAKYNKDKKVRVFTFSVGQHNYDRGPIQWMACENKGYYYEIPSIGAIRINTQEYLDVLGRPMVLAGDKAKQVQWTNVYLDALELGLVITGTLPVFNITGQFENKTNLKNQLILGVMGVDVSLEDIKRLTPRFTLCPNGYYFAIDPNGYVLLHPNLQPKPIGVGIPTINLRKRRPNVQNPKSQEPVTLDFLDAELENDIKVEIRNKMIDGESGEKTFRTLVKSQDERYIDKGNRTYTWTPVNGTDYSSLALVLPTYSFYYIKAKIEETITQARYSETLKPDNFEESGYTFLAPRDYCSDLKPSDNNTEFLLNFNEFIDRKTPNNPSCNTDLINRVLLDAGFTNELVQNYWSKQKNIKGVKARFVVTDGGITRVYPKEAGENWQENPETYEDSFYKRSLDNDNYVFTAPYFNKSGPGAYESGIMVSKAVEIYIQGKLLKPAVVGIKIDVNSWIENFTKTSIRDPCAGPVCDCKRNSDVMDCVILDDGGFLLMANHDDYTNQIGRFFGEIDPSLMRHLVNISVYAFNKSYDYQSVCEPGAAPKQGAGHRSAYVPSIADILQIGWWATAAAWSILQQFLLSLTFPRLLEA
T1 sequence (P13806 961-1106 partner limits assumed, other chains not shown): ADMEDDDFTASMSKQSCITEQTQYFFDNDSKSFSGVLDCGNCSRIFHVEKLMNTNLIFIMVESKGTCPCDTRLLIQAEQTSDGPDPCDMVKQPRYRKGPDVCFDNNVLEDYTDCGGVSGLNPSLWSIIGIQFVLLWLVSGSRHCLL

Row | IC50 (Tables 6-7) | IC50 (Tables 1-5) | SMILES
1 | 50 nM | – | CC1=C(C(=O)OCCOC(=O)CN(C)Cc2ccccc2)C(c2c(F)cccc2Cl)C2=C(CS(=O)(=O)CCS2(=O)=O)N1 (stereo not drawn) [Compound 47]
2 | 153 nM | – | CC1=C(C(=O)OCCOC(=O)CN(C)C(=O)c2ccccc2)C(c2c(F)cccc2Cl)C2=C(CS(=O)(=O)CCS2(=O)=O)N1 (stereo not drawn) [Compound 58]
3 | 15 nM | – | CC1=C(C(=O)OCCOC(=O)C(C)C)C(c2cccc(Cl)c2Cl)C2=C(CS(=O)(=O)CCS2(=O)=O)N1 (stereo not drawn) [Compound 34, 5H-[1,4]dithiepino[6,5-b]pyridine-8-carboxylic acid, 9-(2,3-dichlorophenyl)-2,3,6,9-tetrahydro-7-methyl-, 2-(2-methyl-1-oxopropoxy)ethyl ester, 1,1,4,4-tetraoxide]
4 | 6990 nM | – | CC1=C(C(=O)OCC(N)=O)C(c2c(F)cccc2Cl)C2=C(CS(=O)(=O)CCS2(=O)=O)N1 (stereo not drawn) [Compound 93]
5 | 3700 nM | – | CC1=C(C(=O)OCCOC(=O)C(C)(C)C)C(c2c(F)cccc2Cl)C2=C(CS(=O)(=O)CCS2(=O)=O)N1 (stereo not drawn) [Compound 89]
6 | 20 nM | – | CC1=C(C(=O)OCCOC(=O)c2ccc(OC(C)C)cc2)C(c2c(F)cccc2Cl)C2=C(CS(=O)(=O)CCS2(=O)=O)N1 (stereo not drawn) [Compound 35, 5H-[1,4]dithiepino[6,5-b]pyridine-8-carboxylic acid, 9-(2-chloro-6-fluorophenyl)-2,3,6,9-tetrahydro-7-methyl-, 2-[[4-(1-methylethoxy)benzoyl]oxy]ethyl ester, 1,1,4,4-tetraoxide]
7 | 1000 nM | – | CC1=C(C(=O)OCCO)C(c2c(F)cccc2Cl)C2=C(CS(=O)(=O)CCS2(=O)=O)N1 (stereo not drawn) [Compound 82]
8 | – | 91 nM | COC(=O)C1=C(C)NC2=C(C1c1c(F)cccc1Cl)S(=O)(=O)CCS(=O)(=O)C2 (stereo not drawn) [Compound 11, 5H-1,4-Dithiepino[6,5-b]pyridine-8-carboxylic acid, 9-(2-chloro-6-fluorophenyl)-2,3,6,9-tetrahydro-7-methyl-methyl ester 1,1,4,4-tetraoxide]
9 | 62 nM | – | CC1=C(C(=O)OCCOC(=O)c2ccccc2)C(c2c(F)cccc2Cl)C2=C(CS(=O)(=O)CCS2(=O)=O)N1 (stereo not drawn) [Compound 51]
10 | 35 nM | – | CC1=C(C(=O)OCCOC(=O)CC(C)C)C(c2c(F)cccc2Cl)C2=C(CS(=O)(=O)CCS2(=O)=O)N1 (stereo not drawn) [Compound 38]
11 | 5800 nM | – | CC1=C(C(=O)OCCOC(=O)C(N)C(C)C)C(c2c(F)cccc2Cl)C2=C(CS(=O)(=O)CCS2(=O)=O)N1 (stereo not drawn) [Compound 92]
12 | 220 nM | – | CC1=C(C(=O)OCCOC(=O)C(C)C)C(c2c(F)cccc2Cl)C2=C(CS(=O)(=O)CCS2(=O)=O)N1 (stereo not drawn) [Compound 64]
13 | – | 61 nM | COC(=O)C1=C(C)NC2=C(C1c1ccccc1Cl)S(=O)(=O)CCS(=O)(=O)C2 (stereo not drawn) [Compound 15, 5H-1,4-Dithiepino[6,5-b]pyridine-8-carboxylic acid, 9-(2-chlorophenyl)-2,3,6,9-tetrahydro-7-methyl-methyl ester 1,1,4,4-tetraoxide]
14 | 150000 nM | – | CC1=C(C(=O)OCCOC(=O)CN)C(c2c(F)cccc2Cl)C2=C(CS(=O)(=O)CCS2(=O)=O)N1 (stereo not drawn) [Compound 97]
15 | 154 nM | – | CC1=C(C(=O)OCC(=O)OCCc2ccccc2)C(c2c(F)cccc2Cl)C2=C(CS(=O)(=O)CCS2(=O)=O)N1 (stereo not drawn) [Compound 59]
16 | 316000 nM | – | CC1=C(C(=O)OCC(=O)O)C(c2c(F)cccc2Cl)C2=C(CS(=O)(=O)CCS2(=O)=O)N1 (stereo not drawn) [Compound 98, 7-methyl-9-[2-fluoro-6-chlorophenyl]-2,3,6,9-tetrahydro-1,1,4,4-tetraoxide 5H-1,4-Dithiepino[6,5-b]pyridine-8-carboxylic acid carboxymethyl ester]
17 | 1230 nM | – | CC1=C(C(=O)OCCOC(=O)CN(C)C)C(c2c(F)cccc2Cl)C2=C(CS(=O)(=O)CCS2(=O)=O)N1 (stereo not drawn) [Compound 84]
18 | 760 nM | – | CC1=C(C(=O)OCCOC(=O)c2ccncc2)C(c2c(F)cccc2Cl)C2=C(CS(=O)(=O)CCS2(=O)=O)N1 (stereo not drawn) [Compound 78]
19 | 176 nM | – | CC1=C(C(=O)OCCCOC(=O)C(C)C)C(c2c(F)cccc2Cl)C2=C(CS(=O)(=O)CCS2(=O)=O)N1 (stereo not drawn) [Compound 62]
20 | 194 nM | – | CC1=C(C(=O)OCCC2CCOC2=O)C(c2cccc(Cl)c2Cl)C2=C(CS(=O)(=O)CCS2(=O)=O)N1 (stereo not drawn) [Compound 63]
21 | 4240 nM | – | CCN(CC)C(=O)COC(=O)C1=C(C)NC2=C(C1c1c(F)cccc1Cl)S(=O)(=O)CCS(=O)(=O)C2 (stereo not drawn) [Compound 90]

Second part, the compound before the results:

Row | SMILES | IC50 (Tables 6-7) | IC50 (Tables 1-5)
22 | CC1=C(C(=O)OCCN(C)Cc2ccccc2)C(c2ccccc2Cl)C2=C(CS(=O)(=O)CS2(=O)=O)N1 (stereo not drawn) [Compound 32, 4H-1,3-Dithiino[5,4-b]pyridine-7-carboxylic acid, 8-(2-chlorophenyl)-5,8-dihydro-6-methyl-2-[methyl(phenylmethyl)amino]ethyl ester 1,1,3,3-tetraoxide] | – | 39 nM
23 | CC1=C(C(=O)OCCCCOC(=O)c2ccccc2)C(c2c(F)cccc2Cl)C2=C(CS(=O)(=O)CCS2(=O)=O)N1 (stereo not drawn) [Compound 49] | 57 nM | –
24 | CC1=C(C(=O)OCCOC(=O)c2ccc3ccccc3c2)C(c2c(F)cccc2Cl)C2=C(CS(=O)(=O)CCS2(=O)=O)N1 (stereo not drawn) [Compound 46] | 50 nM | –
25 | C=C1CS(=O)(=O)C2=C(CS1(=O)=O)NC(C)=C(C(=O)OCCN(C)Cc1ccccc1)C2c1cccc(C(F)(F)F)c1F (stereo not drawn) [Compound 21, 5H-1,4-Dithiepino[6,5-b]pyridine-8-carboxylic acid, 9-[2-fluoro-3-(trifluoromethyl)phenyl]-2,3,6,9-tetrahydro-7-methyl-3-methylene-2-[methyl(phenylmethyl)amino]ethyl ester 1,1,4,4-tetraoxide] | – | 38 nM
26 | CC1=C(C(=O)OCCN(C)Cc2ccccc2)C(c2c(F)cccc2C(F)(F)F)C2=C(CS(=O)(=O)CCCS2(=O)=O)N1 (stereo not drawn) [Compound 26, 2H,6H-1,5-Dithiocino[3,2-b]pyridine-9-carboxylic acid, 10-[2-fluoro-6-(trifluoromethyl)phenyl]-3,4,7,10-tetrahydro-8-methyl-2-[methyl(phenylmethyl)amino]ethyl ester 1,1,5,5-tetraoxide] | – | 28 nM
27 | CC1=C(C(=O)OCCN(C)Cc2ccccc2)[C@H](c2c(F)cccc2Cl)C2=C(CS(=O)(=O)CCS2(=O)=O)N1 (single isomer, unassigned) [Compound 3, 5H-1,4-Dithiepino[6,5-b]pyridine-8-carboxylic acid, 9-(2-chloro-6-fluorophenyl)-2,3,6,9-tetrahydro-7-methyl-2-[methyl(phenylmethyl)amino]ethyl ester 1,1,4,4-tetraoxide] | – | 160000 nM
28 | CC1=C(C(=O)OCCN(C)Cc2ccccc2)C(c2cc(F)c(F)c(F)c2)C2=C(CS(=O)(=O)CCS2(=O)=O)N1 (stereo not drawn) [Compound 9, 5H-1,4-Dithiepino[6,5-b]pyridine-8-carboxylic acid, 2,3,6,9-tetrahydro-7-methyl-9-(3,4,5-trifluorophenyl)-2-[methyl(phenylmethyl)amino]ethyl ester 1,1,4,4-tetraoxide] | – | 13 nM
29 | CC1=C(C(=O)OCC(=O)Oc2ccccc2)C(c2c(F)cccc2Cl)C2=C(CS(=O)(=O)CCS2(=O)=O)N1 (stereo not drawn) [Compound 67] | 336 nM | –
30 | CC1=C(C(=O)OCCN(C)Cc2ccccc2)C(c2cccc([N+](=O)[O-])c2)C2=C(CS(=O)(=O)C(CO)CS2(=O)=O)N1 (stereo not drawn) [Compound 24, 5H-1,4-Dithiepino[6,5-b]pyridine-8-carboxylic acid, 2,3,6,9-tetrahydro-3-(hydroxymethyl)-7-methyl-9-(3-nitrophenyl)-2-[methyl(phenylmethyl)amino]ethyl ester 1,1,4,4-tetraoxide] | – | 337 nM
31 | COC(=O)C1=C(C)NC2=C(C1c1cccc(C(F)(F)F)c1F)S(=O)(=O)CC(CO)S(=O)(=O)C2 (stereo not drawn) [Compound 22, 5H-1,4-Dithiepino[6,5-b]pyridine-8-carboxylic acid, 9-[2-fluoro-3-(trifluoromethyl)phenyl]-2,3,6,9-tetrahydro-3-(hydroxymethyl)-7-methyl-methyl ester 1,1,4,4-tetraoxide] | – | 193 nM
32 | COC(=O)C1=C(C)NC2=C(C1c1ccccc1[N+](=O)[O-])S(=O)(=O)CCS(=O)(=O)C2 (stereo not drawn) [Compound 19, 5H-1,4-Dithiepino[6,5-b]pyridine-8-carboxylic acid, 2,3,6,9-tetrahydro-7-methyl-9-(2-nitrophenyl)-methyl ester 1,1,4,4-tetraoxide] | – | 210 nM
33 | COC(=O)C1=C(C)NC2=C(C1c1c(F)c(F)c(F)c(F)c1F)S(=O)(=O)CCS(=O)(=O)C2 (stereo not drawn) [Compound 13, 5H-1,4-Dithiepino[6,5-b]pyridine-8-carboxylic acid, 2,3,6,9-tetrahydro-7-methyl-9-(pentafluorophenyl)-methyl ester 1,1,4,4-tetraoxide] | – | 27 nM
34 | COC(=O)C1=C(C)NC2=C(C1c1c(F)cccc1F)S(=O)(=O)CCS(=O)(=O)C2 (stereo not drawn) [Compound 14, 5H-1,4-Dithiepino[6,5-b]pyridine-8-carboxylic acid, 9-(2,6-difluorophenyl)-2,3,6,9-tetrahydro-7-methyl-methyl ester 1,1,4,4-tetraoxide] | – | 259 nM
35 | CC1=C(C(=O)OCCN(C)Cc2ccccc2)C(c2cccc(C(F)(F)F)c2F)C2=C(CS(=O)(=O)C(CO)CS2(=O)=O)N1 (stereo not drawn) [Compound 23, 5H-1,4-Dithiepino[6,5-b]pyridine-8-carboxylic acid, 9-[2-fluoro-3-(trifluoromethyl)phenyl]-2,3,6,9-tetrahydro-3-(hydroxymethyl)-7-methyl-2-[methyl(phenylmethyl)amino]ethyl ester 1,1,4,4-tetraoxide] | – | 215 nM
36 | CC1=C(C(=O)OCCCO)C(c2c(F)cccc2Cl)C2=C(CS(=O)(=O)CCS2(=O)=O)N1 (stereo not drawn) [Compound 83] | 1210 nM | –
